# In the supplement of paper PMC10307832:
# Assays:
# Assay in all cases: relative viability (nuclei count vs DMSO), 5 days (fraction); higher = more cells survive
# [1] = compound: CS(=O)(=O)c1ccc(C(=O)Nc2ccc(Cl)c(-c3ccccn3)c2)c(Cl)c1 [Vismodegib] + CC(C)C[C@H](NC(=O)[C@H](Cc1ccccc1)NC(=O)c1cnccn1)B(O)O [Bortezomib] (partner 0.002 µM)
# Summary of the method: (§1)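 Lung cancer cell lines were pin-tool dosed in 1536-well plates on the day after seeding, with either a lone drug or a fixed anchor-drug dose plus five library-drug doses (not always all listed) in √10 steps. Nuclei were counted on 4× images after 5 days. Relative viability is the ratio of treated-well to vehicle-well nuclei counts, with each value a median of duplicate plates.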
# [2] = compound: N#CC[C@H](C1CCCC1)n1cc(-c2ncnc3[nH]ccc23)cn1 [Ruxolitinib] + CC(=O)Nc1cccc(-n2c(=O)n(C3CC3)c(=O)c3c(Nc4ccc(I)cc4F)n(C)c(=O)c(C)c32)c1 [Trametinib] (partner 0.02 µM)
# Summary of the method: as §1
# [3] = compound: CS(=O)(=O)c1ccc(C(=O)Nc2ccc(Cl)c(-c3ccccn3)c2)c(Cl)c1 [Vismodegib] + C[C@@H](Oc1cc(-c2cnn(C3CCNCC3)c2)cnc1N)c1c(Cl)ccc(F)c1Cl [Crizotinib] (partner 1 µM)
# Summary of the method: as §1
# [4] = compound: N#CC[C@H](C1CCCC1)n1cc(-c2ncnc3[nH]ccc23)cn1 [Ruxolitinib] + CS(=O)(=O)N1CCN(Cc2cc3nc(-c4cccc5[nH]ncc45)nc(N4CCOCC4)c3s2)CC1 [Pictilisib] (partner 1 µM)
# Summary of the method: as §1
cell line,measurement,setting,value
UMC-11,relative viability,[1]; first compound 0.08 µM,0.593
same,relative viability,[1]; first compound 0.253 µM,0.665
same,relative viability,[1]; first compound 0.8 µM,0.85
same,relative viability,[1]; first compound 2.53 µM,0.717
same,relative viability,[1]; first compound 8 µM,0.745
same,relative viability,[2]; first compound 0.08 µM,0.823
same,relative viability,[2]; first compound 0.253 µM,0.703
same,relative viability,[2]; first compound 0.8 µM,0.872
same,relative viability,[2]; first compound 2.53 µM,1.03
same,relative viability,[2]; first compound 8 µM,0.653
same,relative viability,[3]; first compound 0.08 µM,0.57
same,relative viability,[3]; first compound 0.253 µM,0.56
same,relative viability,[3]; first compound 0.8 µM,0.723
same,relative viability,[3]; first compound 2.53 µM,0.606
same,relative viability,[3]; first compound 8 µM,0.652
same,relative viability,[4]; first compound 0.08 µM,0.738
same,relative viability,[4]; first compound 0.253 µM,0.853
same,relative viability,[4]; first compound 0.8 µM,1.05
same,relative viability,[4]; first compound 2.53 µM,0.958
same,relative viability,[4]; first compound 8 µM,0.927
